From patent publication US20230416330A1, “Optimized GIP Peptide Analogues” (Antag Therapeutics ApS, priority 2019, published 2023)
Starred links: 1 amine or outer side, 2 acyl side, 3 side chain; linkers in the order of their positions; H or OH if unused. Non-standard residues stand in square brackets, D forms with d. Residues, ends and D or L forms follow the SMILES beside them. Groups on a side chain read outwards from the residue. *: point of attachment. C18 diacid = O=C(O)CCCCCCCCCCCCCCCCC(=O)*; C16 diacid = O=C(O)CCCCCCCCCCCCCCC(=O)*; γGlu = O=C(O)[C@H](CCC(=O)[*:2])N[*:1]; Glutaryl = O=C(CCCC(=O)[*:2])[*:1]; Nle = CCCC[C@H](N)C(=O)O; AEEA = NCCOCCOCC(=O)O; Aib = CC(C)(N)C(=O)O

Biological target: T1, human GIP receptor (Homo sapiens, UniProt P48546)
T1 construct: host or cells: HEK-293 cells, transient transfection (Lipofectamine 2000), cDNA in pCMV-Script vector
T1 sequence (P48546 22-466): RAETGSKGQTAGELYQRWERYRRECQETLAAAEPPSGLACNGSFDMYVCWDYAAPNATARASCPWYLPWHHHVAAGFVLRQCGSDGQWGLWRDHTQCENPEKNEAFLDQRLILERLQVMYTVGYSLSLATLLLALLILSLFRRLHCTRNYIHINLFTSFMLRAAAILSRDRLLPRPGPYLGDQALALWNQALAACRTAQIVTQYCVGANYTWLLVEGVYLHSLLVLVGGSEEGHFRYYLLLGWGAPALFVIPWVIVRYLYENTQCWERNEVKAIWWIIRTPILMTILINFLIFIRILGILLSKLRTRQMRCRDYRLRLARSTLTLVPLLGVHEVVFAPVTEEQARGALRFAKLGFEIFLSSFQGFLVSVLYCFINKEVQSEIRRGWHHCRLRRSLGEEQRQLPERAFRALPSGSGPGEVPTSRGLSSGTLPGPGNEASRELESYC
Experiment: cAMP assay Alternative 1 (CisBio assay), GIPR antagonism
Type: cell-based
Details: for cAMP antagonism % inhib: Table 2B, % inhibition of Emax
Experimental: HEK293 cells were cultured in 10% CO2 and 37° C. in Dulbecco's modified Eagle's medium supplemented with 10% fetal bovine serum, 2 mM glutamine, 180 units/ml penicillin, and 45 µg/ml streptomycin. Transient transfection with hGIPR for the CisBio assay from Table 2C was performed by using Lipofectamine 2000.
The in vitro functional activity of compounds towards human GIP receptor can also be determined in HEK-293 cells transiently expressing the receptor. On the day of the assay, cells were resuspended in HBSS buffer (Gibco, 14025-50) supplemented with […] (Gibco, 15630-106), 0.1% Pluronic F-68 (Gibco, 24040-032) and 0.1% casein (Sigma, C4765), and plated in 384-well plates at a density of 5000 cells/well. The GIP peptide analogues of the present disclosure were diluted in HBSS buffer supplemented with 20 mM HEPES, 0.1% pluronic, 0.1% casein and 500 uM IBMX. […] The resulting decrease in intracellular cAMP was quantitatively determined using the CisBio cAMP Dynamic 2 HTRF Assay Kit. The assay is based on a competition between native cAMP produced by cells and cAMP labeled with the dye d2 for binding to a cryptate labeled antibody. The specific signal (i.e. energy transfer signal) is inversely proportional to the concentration of cAMP in the sample.
The cAMP-d2 conjugate and the antibody anti-cAMP-Cryptate, both diluted in lysis buffer provided in the kit, were added to the cells according to the manufacturer's protocol. The resulting competitive assay was incubated for 60 minutes at room temperature, and the signal was detected by using a PerkinElmer Envision® instrument with excitation at 320 nm and emission at 665 nm and 620 nm. The HTRF ratio (emission at 665 nm/620 nm*10,000) is inversely proportional to the amount of cAMP present and is converted to nM cAMP per well using a cAMP standard curve. The dose-response curves were fitted using the non-linear regression analysis (four-logistic parameter equation) in GraphPad Prism, whereby pIC50 values were estimated. To test for agonistic properties at the GIP receptor, compounds were diluted and added to cells as described above and incubated for 30 min at 37° C. The resulting increase in intracellular cAMP was determined using the CisBio cAMP Dynamic 2 HTRF Assay Kit as described above.
The dose-response curves were fitted using the non-linear regression analysis (four-logistic parameter equation) in GraphPad Prism, whereby pIC50 values were estimated.

CCCC[C@H](NC(=O)C(C)(C)NC(=O)[C@@H](NC(=O)[C@H](CO)NC(=O)[C@H](Cc1ccc(O)cc1)NC(=O)[C@H](CC(=O)O)NC(=O)[C@H](CO)NC(=O)[C@@H](NC(=O)[C@H](Cc1ccccc1)NC(=O)[C@@H](NC(=O)CNC(=O)[C@@H](N)CCC(=O)O)[C@@H](C)O)[C@@H](C)CC)[C@@H](C)CC)C(=O)N[C@@H](CC(=O)O)C(=O)N[C@@H](CCCCN)C(=O)N[C@H](C(=O)N[C@@H](CCCCNC(=O)CCCCCCCCCCCCCCC(=O)O)C(=O)N[C@@H](CCC(N)=O)C(=O)N[C@@H](CCC(N)=O)C(=O)N[C@@H](CC(=O)O)C(=O)N[C@@H](Cc1ccccc1)C(=O)N[C@H](C(=O)N[C@@H](CCC(=O)O)C(=O)N[C@@H](Cc1c[nH]c2ccccc12)C(=O)N[C@@H](CC(C)C)C(=O)N[C@@H](CC(C)C)C(=O)N[C@@H](C)C(=O)N[C@@H](CCC(N)=O)C(=O)N[C@@H](CCCCN)C(=O)N1CCC[C@H]1C(=O)N[C@@H](CO)C(=O)N[C@@H](CO)C(=O)NCC(=O)N[C@@H](C)C(=O)N1CCC[C@H]1C(=O)N1CCC[C@H]1C(=O)N1CCC[C@H]1C(=O)N[C@@H](CO)C(=O)O)C(C)C)[C@@H](C)CC [AT667] (H-EGTFISDYSI[Aib][Nle]DKIK(C16 diacid)QQDFVEWLLAQKPSSGAPPPS-OH; N-terminus assumed)
cAMP antagonism % inhib: 86%

CC[C@H](C)[C@H](NC(=O)[C@H](CO)NC(=O)[C@H](Cc1ccc(O)cc1)NC(=O)[C@H](CC(=O)O)NC(=O)[C@H](CO)NC(=O)[C@@H](NC(=O)[C@H](Cc1ccccc1)NC(=O)[C@@H](NC(=O)CNC(=O)[C@@H](N)CCC(=O)O)[C@@H](C)O)[C@@H](C)CC)C(=O)N[C@@H](C)C(=O)N[C@@H](CCSC)C(=O)N[C@@H](CC(=O)O)C(=O)N[C@@H](CCCCN)C(=O)N[C@H](C(=O)N[C@@H](CCCCNC(=O)CCCCCCCCCCCCCCC(=O)O)C(=O)N[C@@H](CCC(N)=O)C(=O)N[C@@H](CCC(N)=O)C(=O)N[C@@H](CC(=O)O)C(=O)N[C@@H](Cc1ccccc1)C(=O)N[C@H](C(=O)N[C@@H](CCC(=O)O)C(=O)N[C@@H](Cc1c[nH]c2ccccc12)C(=O)N[C@@H](CC(C)C)C(=O)N[C@@H](CC(C)C)C(=O)N[C@@H](C)C(=O)N[C@@H](CCC(N)=O)C(=O)N[C@@H](C)C(=O)N1CCC[C@H]1C(=O)N[C@@H](CO)C(=O)N[C@@H](CO)C(=O)NCC(=O)N[C@@H](C)C(=O)N1CCC[C@H]1C(=O)N1CCC[C@H]1C(=O)N1CCC[C@H]1C(=O)N[C@@H](CO)C(=O)O)C(C)C)[C@@H](C)CC [AT623] (H-EGTFISDYSIAMDKIK(C16 diacid)QQDFVEWLLAQAPSSGAPPPS-OH; N-terminus assumed)
cAMP antagonism % inhib: 98%

CCCC[C@H](NC(=O)[C@H](C)NC(=O)[C@@H](NC(=O)[C@H](CO)NC(=O)[C@H](Cc1ccc(O)cc1)NC(=O)[C@H](CC(=O)O)NC(=O)[C@H](CO)NC(=O)[C@@H](NC(=O)[C@H](Cc1ccccc1)NC(=O)[C@@H](NC(=O)CNC(=O)CCCC(=O)O)[C@@H](C)O)[C@@H](C)CC)[C@@H](C)CC)C(=O)N[C@@H](CC(=O)O)C(=O)N[C@@H](CCCCN)C(=O)N[C@H](C(=O)N[C@@H](CCCCNC(=O)CCCCCCCCCCCCCCC(=O)O)C(=O)N[C@@H](CCC(N)=O)C(=O)N[C@@H](CCC(N)=O)C(=O)N[C@@H](CC(=O)O)C(=O)N[C@@H](Cc1ccccc1)C(=O)N[C@H](C(=O)N[C@@H](CCC(=O)O)C(=O)N[C@@H](Cc1c[nH]c2ccccc12)C(=O)N[C@@H](CC(C)C)C(=O)N[C@@H](CC(C)C)C(=O)N[C@@H](C)C(=O)N[C@@H](CCC(N)=O)C(=O)N[C@@H](CCCCN)C(=O)N1CCC[C@H]1C(=O)N[C@@H](CO)C(=O)N[C@@H](CO)C(=O)NCC(=O)N[C@@H](C)C(=O)N1CCC[C@H]1C(=O)N1CCC[C@H]1C(=O)N1CCC[C@H]1C(=O)N[C@@H](CO)C(=O)O)C(C)C)[C@@H](C)CC [AT700] (Glutaryl-GTFISDYSIA[Nle]DKIK(C16 diacid)QQDFVEWLLAQKPSSGAPPPS-OH)
cAMP antagonism % inhib: 89%

CC[C@H](C)[C@H](NC(=O)[C@H](CO)NC(=O)[C@H](Cc1ccc(O)cc1)NC(=O)[C@H](CC(=O)O)NC(=O)[C@H](CO)NC(=O)[C@@H](NC(=O)[C@H](Cc1ccccc1)NC(=O)[C@@H](NC(=O)CNC(=O)[C@@H](N)CCC(=O)O)[C@@H](C)O)[C@@H](C)CC)C(=O)N[C@@H](C)C(=O)N[C@@H](CCSC)C(=O)N[C@@H](CC(=O)O)C(=O)N[C@@H](CCCCN)C(=O)N[C@H](C(=O)N[C@@H](CCCCNC(=O)CCCCCCCCCCCCCCC(=O)O)C(=O)N[C@@H](CCC(N)=O)C(=O)N[C@@H](CCC(N)=O)C(=O)N[C@@H](CC(=O)O)C(=O)N[C@@H](Cc1ccccc1)C(=O)N[C@H](C(=O)N[C@@H](CCC(=O)O)C(=O)N[C@@H](Cc1c[nH]c2ccccc12)C(=O)N[C@@H](CC(C)C)C(=O)N[C@@H](CC(C)C)C(=O)N[C@@H](C)C(=O)N[C@@H](CCC(N)=O)C(=O)N[C@@H](CCCCN)C(=O)N1CCC[C@H]1C(=O)N[C@@H](CO)C(=O)N[C@@H](CO)C(=O)NCC(=O)N[C@@H](C)C(=O)N1CCC[C@H]1C(=O)N1CCC[C@H]1C(=O)N1CCC[C@H]1C(=O)N[C@@H](CO)C(=O)O)C(C)C)[C@@H](C)CC [AT617] (H-EGTFISDYSIAMDKIK(C16 diacid)QQDFVEWLLAQKPSSGAPPPS-OH; N-terminus assumed)
IC50: 0.794 nM
cAMP antagonism % inhib: 91%

CCCC[C@H](NC(=O)[C@H](C)NC(=O)[C@@H](NC(=O)[C@H](CO)NC(=O)[C@H](Cc1ccc(O)cc1)NC(=O)[C@H](CC(=O)O)NC(=O)[C@H](CO)NC(=O)[C@@H](NC(=O)[C@H](Cc1ccccc1)NC(=O)[C@@H](NC(=O)CNC(=O)CCCC(=O)O)[C@@H](C)O)[C@@H](C)CC)[C@@H](C)CC)C(=O)N[C@@H](CC(=O)O)C(=O)N[C@@H](CCCCN)C(=O)N[C@H](C(=O)N[C@@H](CCCCNC(=O)COCCOCCNC(=O)COCCOCCNC(=O)CC[C@H](NC(=O)CCCCCCCCCCCCCCCCC(=O)O)C(=O)O)C(=O)N[C@@H](CCC(N)=O)C(=O)N[C@@H](CCC(N)=O)C(=O)N[C@@H](CC(=O)O)C(=O)N[C@@H](Cc1ccccc1)C(=O)N[C@H](C(=O)N[C@@H](CCC(=O)O)C(=O)N[C@@H](Cc1c[nH]c2ccccc12)C(=O)N[C@@H](CC(C)C)C(=O)N[C@@H](CC(C)C)C(=O)N[C@@H](C)C(=O)N[C@@H](CCC(N)=O)C(=O)N[C@@H](CCCCN)C(=O)N1CCC[C@H]1C(=O)N[C@@H](CO)C(=O)N[C@@H](CO)C(=O)NCC(=O)N[C@@H](C)C(=O)N1CCC[C@H]1C(=O)N1CCC[C@H]1C(=O)N1CCC[C@H]1C(=O)N[C@@H](CO)C(=O)O)C(C)C)[C@@H](C)CC [AT702] (Glutaryl-GTFISDYSIA[Nle]DKIK([AEEA-AEEA-γGlu-C18 diacid])QQDFVEWLLAQKPSSGAPPPS-OH)
cAMP antagonism % inhib: 85%

CC[C@H](C)[C@H](NC(=O)[C@H](CO)NC(=O)[C@H](Cc1ccc(O)cc1)NC(=O)[C@H](CCC(=O)O)NC(=O)[C@H](CO)NC(=O)[C@@H](NC(=O)[C@H](Cc1ccccc1)NC(=O)[C@@H](NC(=O)CNC(=O)[C@@H](N)CCC(=O)O)[C@@H](C)O)[C@@H](C)CC)C(=O)N[C@@H](C)C(=O)N[C@@H](CCSC)C(=O)N[C@@H](CCC(=O)O)C(=O)N[C@@H](CCCCN)C(=O)N[C@H](C(=O)N[C@@H](CCCCNC(=O)CCCCCCCCCCCCCCC(=O)O)C(=O)N[C@@H](CCC(N)=O)C(=O)N[C@@H](CCC(N)=O)C(=O)N[C@@H](CCC(=O)O)C(=O)N[C@@H](Cc1ccccc1)C(=O)N[C@H](C(=O)N[C@@H](CCC(=O)O)C(=O)N[C@@H](Cc1c[nH]c2ccccc12)C(=O)N[C@@H](CC(C)C)C(=O)N[C@@H](CC(C)C)C(=O)N[C@@H](C)C(=O)N[C@@H](CCC(N)=O)C(=O)N[C@@H](CCCCN)C(=O)N1CCC[C@H]1C(=O)N[C@@H](CO)C(=O)N[C@@H](CO)C(=O)NCC(=O)N[C@@H](C)C(=O)N1CCC[C@H]1C(=O)N1CCC[C@H]1C(=O)N1CCC[C@H]1C(=O)N[C@@H](CO)C(=O)O)C(C)C)[C@@H](C)CC [AT614] (H-EGTFISEYSIAMEKIK(C16 diacid)QQEFVEWLLAQKPSSGAPPPS-OH; N-terminus assumed)
cAMP antagonism % inhib: 100%
